In patent US11952344B2, “Heterocyclic compound and use thereof” (TAKEDA PHARMACEUTICAL COMPANY LIMITED, priority 2019, dated 2024):

Molecular target: T1, Human NMDA (NR1/NR2B) Receptor (Homo sapiens, UniProt Q13224)
T1 construct: host or cells: HEK293
Experiment: NR2B Ca2+ influx assay
Assay type: cell-based
Details: 10 μM compound; HEK293 cells expressing GRIN1 and GRIN2B; glutamic acid/glycine-induced Ca2+ influx, Fluo-4 fluorescence; read-out: inhibitory rate (10 μM compound concentration)
Source text: Experimental Example 1 NR2B Ca^2+ Influx Assay
To confirm the “antagonistic action on an NMDA receptor containing the NR2B subunit” of the compound of the present invention, human embryonic kidney cell expressing the “NMDA receptor composed of four subunits including 2 sets of heterodimers of NR1 and NR2B”, specifically HEK293 cell expressing human glutamate ionotropic receptor NMDA type subunit 1 (GRIN1) and human glutamate ionotropic receptor NMDA type subunit 2B (GRIN2B), was used and the activation suppressive effect (inhibitory activity) on the receptors by the compound of the present invention was measured.
HEK293 cells that express GRIN1 and GRIN2B were purchased from ChanTest (Human NMDA (NR1/NR2B) Receptor-expressing, stable replicating cell line (HEK293) catalog No. CT6121).
As an index of the NMDA receptor activation, intracellular calcium ion (Ca^2+) influx caused by the binding of glycine and glutamic acid with NR1 and NR2B, respectively, was used.
HEK293 cells that express GRIN1 and GRIN2B were cultured in a cell culture flask in DMEM/F-12 (COSMO BIO, 10-092-CM) medium added with 10% FBS (fetal bovine serum, AusGene), 100 units/mL penicillin, 100 μg/mL streptomycin, 500 μg/mL neomycin, 100 μg/mL Zeocin (registered trade mark, Invitrogen), 5 μg/mL Blasticidin, in an incubator (37° C., 5% CO2).
The cells were detached from flask with trypsin the day before the assay, suspended in a seeding medium (DMEM (Invitrogen, 31053) added with 10% FBS, 100 units/mL penicillin, 100 μg/mL streptomycin) at 8×10^5 cells/mL, seeded by 25 μL/well in a 384-well plate (Falcon, 356663) at 20000 cells/well, and cultured overnight in an incubator. On the day of the assay, tetracycline (Wako Pure Chemical Industries, Ltd., 209-16561) was diluted with the seeding medium at 2 μg/mL, added at 25 μL/well to the plate seeded with the cells, and cultured for 2 hr in an incubator. Thereafter, the medium was removed, and the cells were washed with 50 μL/well assay buffer (137 mM NaCl, 4 mM KCl, 1.8 mM CaCl2, 10 mM HEPES (pH 7.2), 10 mM Glucose, 0.1% BSA). Then, a loading buffer (assay buffer added with 2.5 μM Fluo-4AM, 2 mM Amaranth, 1 mM Tartrazine) was added at 25 μL/well, and incubation was performed in the incubator for 30 min, and at room temperature for 15 min. A solution (25 μL/well) of the Example compound diluted with the above-mentioned assay buffer at 30 μM (final concentration 10 μM) was added, and the cells were stood for 15 min at room temperature. Using FDSS7000EX/μCELL (Hamamatsu Photonics K.K.), 25 μL/well of an assay buffer containing 30 μM glutamic acid, 30 μM glycine was added, and the fluorescence signal at wavelength of Excitation 480 nm, Emission 540 nm was measured every 3 seconds for 5 min. The inhibitory activity was calculated as a relative activity value (inhibitory rate) that inhibits 100% of the cumulative value of the fluorescence value of a well added with an assay buffer free of glutamic acid, glycine, relative to the cumulative value of the fluorescence value of each well.

T1 sequence (Q13224 27-1484, other chains not shown): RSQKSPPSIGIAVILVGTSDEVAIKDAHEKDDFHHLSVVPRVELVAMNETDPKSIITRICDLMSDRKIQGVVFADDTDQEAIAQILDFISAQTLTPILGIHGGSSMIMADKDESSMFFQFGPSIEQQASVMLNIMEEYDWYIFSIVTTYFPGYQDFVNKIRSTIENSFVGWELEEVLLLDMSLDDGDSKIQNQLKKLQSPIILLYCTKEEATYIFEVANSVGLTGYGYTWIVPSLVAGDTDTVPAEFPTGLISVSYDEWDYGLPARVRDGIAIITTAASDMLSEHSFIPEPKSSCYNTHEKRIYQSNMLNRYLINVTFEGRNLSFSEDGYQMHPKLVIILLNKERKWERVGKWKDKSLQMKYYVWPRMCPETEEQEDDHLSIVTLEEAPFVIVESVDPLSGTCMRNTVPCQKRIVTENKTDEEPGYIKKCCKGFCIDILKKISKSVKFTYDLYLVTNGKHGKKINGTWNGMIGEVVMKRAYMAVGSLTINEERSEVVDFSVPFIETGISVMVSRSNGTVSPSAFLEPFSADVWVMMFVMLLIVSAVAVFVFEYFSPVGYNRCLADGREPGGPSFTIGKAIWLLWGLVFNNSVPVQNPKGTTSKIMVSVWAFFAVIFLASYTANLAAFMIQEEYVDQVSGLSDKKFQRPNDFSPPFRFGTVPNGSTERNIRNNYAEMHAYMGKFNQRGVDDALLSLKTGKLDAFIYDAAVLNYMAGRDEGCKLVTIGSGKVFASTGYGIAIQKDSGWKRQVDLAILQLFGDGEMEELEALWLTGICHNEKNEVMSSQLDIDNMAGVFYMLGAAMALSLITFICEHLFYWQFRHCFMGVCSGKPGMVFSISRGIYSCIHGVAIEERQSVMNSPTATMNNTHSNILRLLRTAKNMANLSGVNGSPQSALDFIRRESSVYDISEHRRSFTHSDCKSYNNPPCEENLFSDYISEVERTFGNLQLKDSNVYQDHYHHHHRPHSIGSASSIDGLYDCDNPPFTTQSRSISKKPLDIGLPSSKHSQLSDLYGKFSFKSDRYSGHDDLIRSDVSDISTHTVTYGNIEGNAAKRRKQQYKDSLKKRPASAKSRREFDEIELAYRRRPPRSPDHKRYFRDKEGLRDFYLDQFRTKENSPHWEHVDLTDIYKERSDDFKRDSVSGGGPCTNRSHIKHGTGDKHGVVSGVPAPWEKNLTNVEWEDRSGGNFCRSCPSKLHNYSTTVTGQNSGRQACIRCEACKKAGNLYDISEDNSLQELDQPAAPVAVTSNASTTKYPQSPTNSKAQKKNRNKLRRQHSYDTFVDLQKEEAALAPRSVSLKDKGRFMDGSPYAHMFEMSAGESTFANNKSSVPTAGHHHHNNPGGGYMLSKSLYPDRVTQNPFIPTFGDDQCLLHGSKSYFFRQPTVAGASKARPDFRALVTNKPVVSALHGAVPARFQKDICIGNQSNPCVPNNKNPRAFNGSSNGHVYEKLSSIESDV

| inhibition at 10 µM | SMILES |
| --- | --- |
| 95% | COc1cncc(CNC(=O)c2ccc(OC(F)(F)F)cc2)c1 [Example 1, N-[(5-methoxypyridin-3-yl)methyl]-4-(trifluoromethoxy)benzamide] |
| 93% | O=C(NCc1cncc(Cl)c1)c1ccc(OC(F)(F)F)cc1 [Example 2, N-[(5-chloropyridin-3-yl)methyl]-4-(trifluoromethoxy)benzamide] |
| 95% | O=C(NCc1cncc(Br)c1)c1ccc(OC(F)(F)F)cc1 [Example 3, N-[(5-bromopyridin-3-yl)methyl]-4-(trifluoromethoxy)benzamide] |
| 96% | Cc1ccncc1CNC(=O)c1ccc(OC(F)(F)F)cc1 [Example 4, N-[(4-methylpyridin-3-yl)methyl]-4-(trifluoromethoxy)benzamide] |
| 94% | COc1ccncc1CNC(=O)c1cnc(OC(F)F)c(F)c1 [Example 5, 6-(difluoromethoxy)-5-fluoro-N-[(4-methoxypyridin-3-yl)methyl]pyridine-3-carboxamide] |
| 95% | COc1c(F)cncc1CNC(=O)c1cnc(OC(F)F)c(F)c1 [Example 6, 6-(difluoromethoxy)-5-fluoro-N-[(5-fluoro-4-methoxypyridin-3-yl)methyl]pyridine-3-carboxamide] |
| 91% | COc1ccncc1CNC(=O)c1ccc(OC(F)(F)F)cc1 [Example 7, N-[(4-methoxypyridin-3-yl)methyl]-4-(trifluoromethoxy)benzamide] |
| 95% | COc1ccncc1CNC(=O)c1ccc(OC(F)(F)F)c(F)c1 [Example 8, 3-fluoro-N-[(4-methoxypyridin-3-yl)methyl]-4-(trifluoromethoxy)-benzamide] |
| 90% | COc1ccncc1CNC(=O)c1ccc(C(F)(F)F)c(F)c1 [Example 9, 3-fluoro-N-[(4-methoxypyridin-3-yl)methyl]-4-(trifluoromethyl)benzamide] |
| 96% | CCOc1ccncc1CNC(=O)c1cnc(OC(F)F)c(F)c1 [Example 10, 6-(difluoromethoxy)-N-[(4-ethoxypyridin-3-yl)methyl]-5-fluoropyridine-3-carboxamide] |
| 95% | CCOc1ccncc1CNC(=O)c1ccc(OC(F)F)c(F)c1 [Example 11, 4-(difluoromethoxy)-N-[(4-ethoxypyridin-3-yl)methyl]-3-fluorobenzamide] |
| 93% | COc1ncncc1CNC(=O)c1ccc(OC(F)F)c(F)c1 [Example 13, 4-(difluoromethoxy)-3-fluoro-N-[(4-methoxypyrimidin-5-yl)methyl]benzamide] |
| 96% | O=C(NCc1cnccc1OC1CC1)c1cnc(OC(F)F)c(F)c1 [Example 14, N-{[4-(cyclopropyloxy)-pyridin-3-yl]methyl}-6-(difluoromethoxy)-5-fluoropyridine-3-carboxamide] |
| 96% | O=C(NCc1cnccc1C1CC1)c1cnc(OC(F)F)c(F)c1 [Example 15, N-[(4-cyclopropylpyridin-3-yl)methyl]-6-(difluoromethoxy)-5-fluoropyridine-3-carboxamide] |
| 94% | O=C(NCc1cnccc1C(F)(F)F)c1cnc(OC(F)F)c(F)c1 [Example 16, 6-(difluoromethoxy)-5-fluoro-N-{[4-(trifluoromethyl)pyridin-3-yl]methyl}pyridine-3-carboxamide] |
| 98% | COc1ccncc1CNC(=O)c1cnc(OC(F)F)c(Cl)c1 [Example 17, 5-chloro-6-(difluoromethoxy)-N-[(4-methoxypyridin-3-yl)methyl]pyridine-3-carboxamide] |
| 96% | Cc1ccncc1CNC(=O)c1cnc(OC(F)F)c(F)c1 [Example 18, 6-(difluoromethoxy)-5-fluoro-N-[(4-methylpyridin-3-yl)methyl]pyridine-3-carboxamide] |

| inhibition at 10 µM | SMILES |
| --- | --- |
| 91% | O=C(NCc1cncnc1OC1CC1)c1cnc(OC(F)F)c(F)c1 [Example 19, N-{[4-(cyclopropyloxy)pyrimidin-5-yl]methyl}-6-(difluoromethoxy)-5-fluoropyridine-3-carboxamide] |
| 94% | CC(C)Oc1ncncc1CNC(=O)c1cnc(OC(F)F)c(F)c1 [Example 20, 6-(difluoromethoxy)-5-fluoro-N-({4-[(propan-2-yl)oxy]pyrimidin-5-yl}methyl)pyridine-3-carboxamide] |
| 93% | COc1ncncc1CNC(=O)c1cnc(OC(F)F)c(Cl)c1 [Example 21, 5-chloro-6-(difluoromethoxy)-N-[(4-methoxypyrimidin-5-yl)methyl]pyridine-3-carboxamide] |
| 95% | COc1ncncc1CNC(=O)c1ccc(OC(F)(F)F)c(F)c1 [Example 22, 3-fluoro-N-[(4-methoxypyrimidin-5-yl)methyl]-4-(trifluoromethoxy)benzamide] |
| 95% | O=C(NCc1cncnc1C1CC1)c1cnc(OC(F)F)c(F)c1 [Example 23, N-[(4-cyclopropylpyrimidin-5-yl)methyl]-6-(difluoromethoxy)-5-fluoropyridine-3-carboxamide] |
| 95% | CCOc1ncncc1CNC(=O)c1cnc(OC(F)F)c(F)c1 [Example 24, 6-(difluoromethoxy)-N-[(4-ethoxypyrimidin-5-yl)methyl]-5-fluoropyridine-3-carboxamide] |
| 88% | COc1ncncc1CNC(=O)c1ccc(OC(F)F)cc1 [Example 25, 4-(difluoromethoxy)-N-[(4-methoxypyrimidin-5-yl)methyl]benzamide] |
| 93% | COc1ncncc1CNC(=O)c1ccc(OC(F)(F)F)cc1 [Example 26, N-[(4-methoxypyrimidin-5-yl)methyl]-4-(trifluoromethoxy)-benzamide] |
| 95% | Cc1ccncc1CNC(=O)c1cnc(OC(F)F)c(Cl)c1 [Example 27, 5-chloro-6-(difluoromethoxy)-N-[(4-methylpyridin-3-yl)methyl]pyridine-3-carboxamide] |
| 87% | CCc1ncncc1CNC(=O)c1cnc(OC(F)F)c(F)c1 [Example 28, 6-(difluoromethoxy)-N-[(4-ethylpyrimidin-5-yl)methyl]-5-fluoropyridine-3-carboxamide] |
| 92% | CC(F)(F)c1ncncc1CNC(=O)c1cnc(OC(F)F)c(F)c1 [Example 29, N-{[4-(1,1-difluoroethyl)-pyrimidin-5-yl]methyl}-6-(difluoromethoxy)-5-fluoropyridine-3-carboxamide] |
| 92% | Cc1ncncc1CNC(=O)c1ccc(OC(F)(F)F)c(F)c1 [Example 30, 3-fluoro-N-[(4-methylpyrimidin-5-yl)methyl]-4-(trifluoromethoxy)-benzamide] |
| 68% | Cc1ncncc1CNC(=O)c1cnc(OC(F)F)c(F)c1 [Example 31, 6-(difluoromethoxy)-5-fluoro-N-[(4-methylpyrimidin-5-yl)methyl]pyridine-3-carboxamide] |
| 96% | O=C(NCc1cncnc1OC1CC(F)(F)C1)c1cnc(OC(F)F)c(F)c1 [Example 32, N-({4-[(3,3-difluorocyclobutyl)-oxy]pyrimidin-5-yl}methyl)-6-(difluoromethoxy)-5-fluoropyridine-3-carboxamide] |
| 94% | COc1ncncc1CNC(=O)c1cnc(OC(F)(F)F)c(F)c1 [Example 33, 5-fluoro-N-[(4-methoxypyrimidin-5-yl)methyl]-6-(trifluoromethoxy)pyridine-3-carboxamide] |
| 97% | COc1ccncc1CNC(=O)c1cnc(OC(F)(F)F)c(F)c1 [Example 34, 5-fluoro-N-[(4-methoxypyridin-3-yl)methyl]-6-(trifluoromethoxy)pyridine-3-carboxamide] |
| 96% | Cc1ccncc1CNC(=O)c1cnc(OC(F)(F)F)c(F)c1 [Example 35, 5-fluoro-N-[(4-methylpyridin-3-yl)methyl]-6-(trifluoromethoxy)-pyridine-3-carboxamide] |
